Experimental data: patent US20160194299A1 (priority 2013, published 2016)
Converted amounts (≈) assume the structure as drawn. Read-outs that look alike come from different tables or passages of the source.

Columns and labels:
[1] = system: Mtb; test: microbe, parasite or virus in culture; type: cell-based, Mycobacterium tuberculosis; conditions: Mycobacterium tuberculosis, read-out: MIC (III)
[2] = system: Mtb; test: microbe, parasite or virus in culture; type: cell-based, Mycobacterium tuberculosis; conditions: Mycobacterium tuberculosis, read-out: MIC (I)
[3] = in vitro; conditions: African green monkey

| SMILES | MIC [1] | MIC [2] | CC50 [3] |
| --- | --- | --- | --- |
| CCOC(=O)NC(=O)c1ccsc1NC(=O)c1ccnc(NC(=O)N2CCN(C)CC2)c1.Cl.Cl [Compound 49] | > 25 µg/mL | 1 to 3 µg/mL | > 50 µg/mL |
| CCOC(=O)NC(=O)c1cc(C)sc1NC(=O)c1ccc2scnc2c1 [Compound 62] | > 25 µg/mL | 1 to 3 µg/mL (≈ 2.57 to 7.7 µM) | 25 to 50 µg/mL (≈ 64.2 to 128 µM) |
| CC(CN1CCOCC1)OC(=O)NC(=O)c1ccsc1NC(=O)c1nc2ccccc2s1 (stereo not drawn) [Compound 34] | 5 to 25 µg/mL (≈ 10.5 to 52.7 µM) | > 3 µg/mL | < 25 µg/mL |
| CCOC(=O)NC(=O)c1ccsc1NC(=O)c1ccc2cnccc2c1 [Compound 145] | > 25 µg/mL | > 3 µg/mL | > 50 µg/mL |
| CCOC(=O)NC(=O)c1ccsc1NC(=O)c1ccc(=O)[nH]n1 [Compound 91] | < 5 µg/mL | 1 to 3 µg/mL (≈ 2.97 to 8.92 µM) | > 50 µg/mL |
| O=C(NC(=O)c1ccsc1NC(=O)c1nc2cnccc2s1)OC1CCOC1 (stereo not drawn) [Compound 102] | < 5 µg/mL | < 1 µg/mL | > 50 µg/mL |
| CCOC(=O)NC(=O)c1cc(F)sc1NC(=O)c1nc2ncccc2s1 [Compound 389] | > 25 µg/mL | 1 to 3 µg/mL (≈ 2.54 to 7.61 µM) | < 25 µg/mL |
| COC(=O)NC(=O)c1ccsc1NC(=O)c1cnc2ccnn2c1 [Compound 313] | > 25 µg/mL | > 3 µg/mL | 25 to 50 µg/mL (≈ 72.4 to 145 µM) |
| O=C(NC(=O)c1ccsc1NC(=O)c1nc2ccccc2s1)OCCC(F)(F)F [Compound 319] | > 25 µg/mL | < 1 µg/mL | < 25 µg/mL |
| CCOC(=O)NC(=O)c1ccsc1NC(=O)c1nc(S(C)(=O)=O)ncc1Cl [Compound 126] | > 25 µg/mL | > 3 µg/mL | < 25 µg/mL |
| CC(C)OC(=O)NC(=O)c1cc(F)sc1NC(=O)c1nc2ccccc2s1 [Compound 342] | 5 to 25 µg/mL (≈ 12.3 to 61.4 µM) | < 1 µg/mL | 25 to 50 µg/mL (≈ 61.4 to 123 µM) |
| CCOC(=O)NC(=O)c1ccsc1NC(=O)c1csc(C(F)(F)F)n1 [Compound 131] | 5 to 25 µg/mL (≈ 12.7 to 63.6 µM) | > 3 µg/mL | < 25 µg/mL |
| CCOC(=O)NC(=O)c1ccsc1NC(=O)/C=C/c1ccncc1 [Compound 356] | > 25 µg/mL | > 3 µg/mL | 25 to 50 µg/mL (≈ 72.4 to 145 µM) |
| CCOC(=O)NC(=O)c1ccsc1NC(=O)c1cc2ccccc2cn1 [Compound 116] | > 25 µg/mL | > 3 µg/mL | > 50 µg/mL |
| CCOC(=O)NC(=O)c1ccsc1NC(=O)C1COc2cc(OC)ccc2C1 (stereo not drawn) [Compound 70] | > 25 µg/mL | > 3 µg/mL | > 50 µg/mL |
| CCOC(=O)NC(=O)c1c(C)csc1NC(=O)c1ccc2scnc2c1 [Compound 146] | > 25 µg/mL | > 3 µg/mL | > 50 µg/mL |
| CCOC(=O)NC(=O)c1ccsc1NC(=O)c1sc(-c2cccnc2)nc1C [Compound 136] | > 25 µg/mL | > 3 µg/mL | > 50 µg/mL |
| CCC(OC(=O)NC(=O)c1ccsc1NC(=O)c1nc2ccccc2s1)c1ccccc1 (stereo not drawn) [Compound 307] | 5 to 25 µg/mL (≈ 10.7 to 53.7 µM) | > 3 µg/mL | < 25 µg/mL |
| CCOC(=O)NC(=O)c1ccsc1NC(=O)c1ccc2c(c1)CCCC2 [Compound 119] | > 25 µg/mL | > 3 µg/mL | > 50 µg/mL |
| CC(C)OC(=O)NC(=O)c1ccsc1NC(=O)c1cc2c(F)cccc2s1 [Compound 330] | 5 to 25 µg/mL (≈ 12.3 to 61.5 µM) | < 1 µg/mL | < 25 µg/mL |
| COCCOC(=O)NC(=O)c1ccsc1NC(=O)c1nc2ccccc2s1 [Compound 18] | > 25 µg/mL | < 1 µg/mL | > 50 µg/mL |

| SMILES | MIC [1] | MIC [2] | CC50 [3] |
| --- | --- | --- | --- |
| CCC(CC)OC(=O)NC(=O)c1ccsc1NC(=O)c1cnc2ccnn2c1 [Compound 327] | > 25 µg/mL | 1 to 3 µg/mL (≈ 2.49 to 7.47 µM) | < 25 µg/mL |
| CCOC(=O)NC(=O)c1ccsc1NC(=O)c1nc2c(N(C)C)nccc2s1 [Compound 270] | > 25 µg/mL | < 1 µg/mL | > 50 µg/mL |
| CCOC(=O)NC(=O)c1ccsc1NC(=O)c1nc2c(N3CCOCC3)nccc2s1 [Compound 248] | > 25 µg/mL | < 1 µg/mL | > 50 µg/mL |
| CCOC(=O)NC(=O)c1ccsc1NC(=O)c1ccnc(NC(=O)N2CCOCC2)c1 [Compound 33] | > 25 µg/mL | < 1 µg/mL | > 50 µg/mL |
| CCOC(=O)NC(=O)c1ccsc1NC(=O)c1cc2ccccc2s1 [Compound 90] | < 5 µg/mL | < 1 µg/mL | 25 to 50 µg/mL (≈ 66.8 to 134 µM) |
| CCOC(=O)NC(=O)c1ccsc1NC(=O)c1ccc2cnccc2n1 [Compound 113] | > 25 µg/mL | > 3 µg/mL | > 50 µg/mL |
| CC(=O)N1CCC(OC(=O)NC(=O)c2ccsc2NC(=O)c2cnc3ccnn3c2)CC1 [Compound 368] | > 25 µg/mL | > 3 µg/mL | 25 to 50 µg/mL (≈ 54.8 to 110 µM) |
| O=C(NC(=O)c1ccsc1NC(=O)c1cn2ccccc2n1)OC1CCCCC1 [Compound 381] | > 25 µg/mL | > 3 µg/mL | < 25 µg/mL |
| O=C(NC(=O)c1ccsc1NC(=O)c1nc2cnccc2s1)OCc1cccnc1 [Compound 301] | > 25 µg/mL | > 3 µg/mL | 25 to 50 µg/mL (≈ 56.9 to 114 µM) |
| CC(C)COC(=O)NC(=O)c1ccsc1NC(=O)c1nc2ccccc2s1 [Compound 281] | > 25 µg/mL | < 1 µg/mL | 25 to 50 µg/mL (≈ 62 to 124 µM) |
| CCOC(=O)NC(=O)c1ccsc1NC(=O)c1nc2cnc(N3CCOCC3)cc2s1 [Compound 311] | > 25 µg/mL | < 1 µg/mL | > 50 µg/mL |
| O=C(NC(=O)c1ccsc1NC(=O)c1cn2ccccc2n1)OCCOCc1ccccc1 [Compound 374] | > 25 µg/mL | < 1 µg/mL | 25 to 50 µg/mL (≈ 53.8 to 108 µM) |
| CCOC(=O)NC(=O)c1ccsc1NC(=O)c1cnc2cc(C)nn2c1C [Compound 65] | < 5 µg/mL | < 1 µg/mL | > 50 µg/mL |
| O=C(NC(=O)c1ccsc1NC(=O)c1nc2ccccc2s1)OCc1ccc(F)cc1 [Compound 274] | > 25 µg/mL | 1 to 3 µg/mL (≈ 2.2 to 6.59 µM) | < 25 µg/mL |
| CCOC(=O)NC(=O)c1cc(CC(C(=O)OCC)C(=O)OCC)sc1NC(=O)c1nc2cnccc2s1 [Compound 278] | > 25 µg/mL | > 3 µg/mL | > 50 µg/mL |
| CCOC(=O)NC(=O)c1ccsc1NC(=O)c1ccnc(NC(=O)CN2CCOCC2)c1 [Compound 46] | > 25 µg/mL | < 1 µg/mL | > 50 µg/mL |
| CCOC(=O)NC(=O)c1ccsc1NC(=O)c1cnc2c(N3CCOCC3)cnn2c1 [Compound 315] | > 25 µg/mL | < 1 µg/mL | 25 to 50 µg/mL (≈ 56.2 to 112 µM) |
| CCOC(=O)NC(=O)c1ccsc1NC(=O)c1nc2c(s1)CCCC2 [Compound 217] | > 25 µg/mL | < 1 µg/mL | > 50 µg/mL |
| CCOC(=O)NC(=O)c1ccsc1NC(=O)c1cn2c(n1)CCCC2 [Compound 309] | 5 to 25 µg/mL (≈ 13.8 to 69 µM) | 1 to 3 µg/mL (≈ 2.76 to 8.28 µM) | < 25 µg/mL |
| CCOC(=O)NC(=O)c1ccsc1NC(=O)C1=Cc2cc(OC)ccc2OC1 [Compound 68] | < 5 µg/mL | < 1 µg/mL | > 50 µg/mL |
| C=CCOC(=O)NC(=O)c1ccsc1NC(=O)c1nc2cnccc2s1 [Compound 99] | < 5 µg/mL | < 1 µg/mL | 25 to 50 µg/mL (≈ 64.4 to 129 µM) |

| SMILES | MIC [1] | MIC [2] | CC50 [3] |
| --- | --- | --- | --- |
| CCC(OC(=O)NC(=O)c1ccsc1NC(=O)c1nc2cnccc2s1)c1ccccc1 (stereo not drawn) [Compound 305] | > 25 µg/mL | 1 to 3 µg/mL (≈ 2.14 to 6.43 µM) | < 25 µg/mL |
| CCOC(=O)NC(=O)c1ccsc1NC(=O)c1cncn1C [Compound 263] | > 25 µg/mL | > 3 µg/mL | > 50 µg/mL |
| CCOC(=O)NC(=O)c1ccsc1NC(=O)c1cn2cc(C)ccc2n1 [Compound 208] | > 25 µg/mL | > 3 µg/mL | > 50 µg/mL |
| O=C(NC(=O)c1ccsc1NC(=O)c1nc2cnccc2s1)OCCOCc1ccccc1 [Compound 369] | > 25 µg/mL | < 1 µg/mL | 25 to 50 µg/mL (≈ 51.8 to 104 µM) |
| O=C(NC(=O)c1ccsc1NC(=O)c1nc2ccccc2s1)OC1CCC1 [Compound 321] | > 25 µg/mL | < 1 µg/mL | > 50 µg/mL |
| O=C(NC(=O)c1ccsc1NC(=O)c1nc2cnccc2s1)OCc1ccccc1F [Compound 287] | 5 to 25 µg/mL (≈ 11 to 54.8 µM) | 1 to 3 µg/mL (≈ 2.19 to 6.57 µM) | 25 to 50 µg/mL (≈ 54.8 to 110 µM) |
| CCOC(=O)NC(=O)c1ccsc1NC(=O)c1ccc2c(c1)CCO2 [Compound 132] | 5 to 25 µg/mL (≈ 13.9 to 69.4 µM) | > 3 µg/mL | > 50 µg/mL |
| CCOC(=O)NC(=O)c1ccsc1NC(=O)c1nc2cnc(Cl)cc2s1 [Compound 267] | > 25 µg/mL | < 1 µg/mL | > 50 µg/mL |
| Cc1cc(COC(=O)NC(=O)c2ccsc2NC(=O)c2nc3cnccc3s2)ccn1 [Compound 280] | > 25 µg/mL | > 3 µg/mL | 25 to 50 µg/mL (≈ 55.1 to 110 µM) |
| CCOC(=O)NC(=O)c1ccsc1NC(=O)c1ccnc(NC(=O)N2CCC(F)(F)CC2)c1 [Compound 50] | > 25 µg/mL | < 1 µg/mL | 25 to 50 µg/mL (≈ 51.9 to 104 µM) |
| COC(=O)NC(=O)c1ccsc1NC(=O)c1cn2ccccc2n1 [Compound 347] | > 25 µg/mL | > 3 µg/mL | 25 to 50 µg/mL (≈ 72.6 to 145 µM) |
| CCOC(=O)NC(=O)c1ccsc1NC(=O)c1nc2c(s1)CCN(c1ccccc1)C2 [Compound 97] | > 25 µg/mL | < 1 µg/mL | > 50 µg/mL |
| CCOC(=O)NC(=O)c1ccsc1NC(=O)c1ccc2nccn2c1 [Compound 73] | > 25 µg/mL | 1 to 3 µg/mL (≈ 2.79 to 8.37 µM) | > 50 µg/mL |
| CCOC(=O)NC(=O)c1ccsc1NC(=O)c1ccc2ncccc2c1 [Compound 89] | 5 to 25 µg/mL (≈ 13.5 to 67.7 µM) | 1 to 3 µg/mL (≈ 2.71 to 8.12 µM) | > 50 µg/mL |
| CCOC(=O)NC(=O)c1ccsc1NC(=O)c1cnc(OC)cn1 [Compound 127] | > 25 µg/mL | > 3 µg/mL | > 50 µg/mL |
| O=C(NC(=O)c1ccsc1NC(=O)c1ccnc(NC(=O)N2CCOCC2)c1)OCCF [Compound 48] | > 25 µg/mL | < 1 µg/mL | > 50 µg/mL |
| CCOC(=O)NC(=O)c1ccsc1NC(=O)c1nn(-c2ccccc2)nc1C [Compound 138] | > 25 µg/mL | > 3 µg/mL | > 50 µg/mL |
| CC(=O)N1CCC(OC(=O)NC(=O)c2ccsc2NC(=O)c2nc3cnccc3s2)CC1 [Compound 367] | > 25 µg/mL | > 3 µg/mL | 25 to 50 µg/mL (≈ 52.8 to 106 µM) |
| O=C(NC(=O)c1ccsc1NC(=O)c1nc2cnccc2s1)OCc1ccccc1C(F)(F)F [Compound 295] | 5 to 25 µg/mL (≈ 9.87 to 49.4 µM) | > 3 µg/mL | < 25 µg/mL |
